Source: publication PMC12524408 (International Journal of Molecular Sciences, 2025)

Key:
DSS-induced colitis [1] = test: Effect of 25 nmol/kg PEG-AM in DSS-induced colitis (Study No. P180567); type: in vivo, mouse; conditions: 25 nmol/kg single i.v. one day before DSS, vs control, n = 20
Excerpt: The detailed rationale for this choice is provided in the Discussion. Two groups (control and treatment with 25 nmol/kg PEG-AM) were compared, each consisting of 20 animals.  Figure 5 Effect of 25 nmol/kg PEG-AM in DSS-induced colitis (Study No. P180567). (a) Overview of the experimental design. Groups: vehicle (n = 20), PEG-AM 25 nmol/kg (n = 20). (b) Total inflammation scores on day 8. ** p < 0.01, Mann–Whitney U test. (c) Bloody stool scores on day 8, *** p < 0.001, Mann–Whitney U test. (d) Colon length. (e) Colon weight-to-length ratio, ** p < 0.01, unpaired t-test. (f) PEG-AM plasma concentrations on day 8. (g–j) Fold changes in gene expression of RAMP1 (g), RAMP2 (h), RAMP3 (i), and CLR (j). * p < 0.05, unpaired t-test. To evaluate the pharmacological effects of PEG-AM, three animal studies were conducted by the LSI Medience Corporation following the Animal Welfare Act and institutional approval. Seven-week-old male C57BL/6J JCL mice (CLEA Japan, Inc., Tokyo, Japan) were used in all studies and were housed under pathogen-free conditions. Colitis was induced with 3% (w/v) DSS (MW 5000) in drinking water for seven days. PEG-AM (1.0, 5.0, and 25 nmol/kg) or saline (control) was administered intravenously one day before DSS treatment. Each group included 10 mice. Stool consistency, bleeding, and body weight were evaluated on days −1, 0, 3, 5, and 7. A total inflammation score was calculated. Mice were anesthetized with 3% isoflurane (Zoetis Japan, Tokyo, Japan), and the colon was excised on day 7. Following the protocol described in Section 4.6.1, this study was conducted to confirm the efficacy of 25 nmol/kg intravenous PEG-AM. Each treatment group consisted of 20 mice.

RAMP1, RAMP2, RAMP3, CLR = test: Gene expression of receptor components in distal colon, Study No. P180567; type: in vivo, mouse; conditions: 25 nmol/kg i.v., qPCR, 2^-ΔΔCt, GAPDH normalization, vs control
Excerpt: Figure 5 Effect of 25 nmol/kg PEG-AM in DSS-induced colitis (Study No. P180567). (a) Overview of the experimental design. Groups: vehicle (n = 20), PEG-AM 25 nmol/kg (n = 20). (b) Total inflammation scores on day 8. ** p < 0.01, Mann–Whitney U test. (c) Bloody stool scores on day 8, *** p < 0.001, Mann–Whitney U test. (d) Colon length. (e) Colon weight-to-length ratio, ** p < 0.01, unpaired t-test. (f) PEG-AM plasma concentrations on day 8. (g–j) Fold changes in gene expression of RAMP1 (g), RAMP2 (h), RAMP3 (i), and CLR (j). * p < 0.05, unpaired t-test.
After measuring colon length and weight, distal colon tissue was collected, immersed in RNAlater (Thermo Fisher Scientific K.K.), and stored at −80 °C until RNA extraction. Total RNA was extracted using the RNeasy Micro Kit (Qiagen, Singapore) and quantified using a DeNovix DS-11 Microvolume Spectrophotometer. cDNA was synthesized from 2 μg of total RNA using a high-capacity cDNA Reverse Transcription Kit (Thermo Fisher Scientific K.K.). Quantitative PCR was performed using the StepOnePlus Real-Time PCR System (Applied Biosystems, Waltham, MA, USA) and TaqMan Gene Expression Assays for mouse RAMP1, RAMP2, RAMP3, CLR (CALCRL), and GAPDH (internal control). […]
All reactions were performed in duplicate. Relative expression levels were calculated using the 2^−ΔΔCt method with GAPDH normalization.

[2] = PEG-AM plasma concentration, Study No. P170454; type: in vivo; conditions: 1 nmol/kg single i.v.; mouse; fluorescence immunoassay
Excerpt: Figure 4 Dose-dependent effects of intravenous PEG-AM administration in DSS-induced colitis (Study No. P170454). (a) Overview of the experimental design. Groups: vehicle (n = 10), PEG-AM 1 nmol/kg (n = 10), 5 nmol/kg (n = 10), 25 nmol/kg (n = 10). (b) Total inflammation scores on day 8. (c) Colon length. (d) Colon weight-to-length ratio. (e) PEG-AM plasma concentrations on day 8.
Colitis was induced with 3% (w/v) DSS (MW 5000) in drinking water for seven days. PEG-AM (1.0, 5.0, and 25 nmol/kg) or saline (control) was administered intravenously one day before DSS treatment. Each group included 10 mice. Stool consistency, bleeding, and body weight were evaluated on days −1, 0, 3, 5, and 7. A total inflammation score was calculated. Mice were anesthetized with 3% isoflurane (Zoetis Japan, Tokyo, Japan), and the colon was excised on day 7.

DSS-induced colitis [3] = test: Therapeutic effect of PEG-AM after onset of DSS colitis (Study No. P200487); type: in vivo, mouse; conditions: vs control, n = 6
Protocol: DSS was administered for five days to induce colitis, followed by the administration of PEG-AM or saline on day 5. DSS was replaced with water on day 6 to evaluate recovery. […] (a) Overview of the experimental design. Groups: vehicle (n = 6), PEG-AM 25 nmol/kg (n = 6), 250 nmol/kg (n = 6). (b) Time course of total inflammation scores after PEG-AM administration. (c) Colon length, * p < 0.05, one-way ANOVA followed by Dunnett’s multiple-comparisons test. ns, not significant. (d) Colon weight-to-length ratio, * p < 0.05, one-way ANOVA followed by Dunnett’s multiple-comparisons test. ns, not significant. (e) PEG-AM plasma concentrations on day 12. (f–i) Fold changes in gene expression of RAMP1 (f), RAMP2 (g), RAMP3 (h), and CLR (i). To evaluate the pharmacological effects of PEG-AM, three animal studies were conducted by the LSI Medience Corporation following the Animal Welfare Act and institutional approval. Seven-week-old male C57BL/6J JCL mice (CLEA Japan, Inc., Tokyo, Japan) were used in all studies and were housed under pathogen-free conditions. Colitis was induced with 2% (w/v) DSS (MW 36,000–50,000) for five days. On day 5, the mice were assigned to three groups and intravenously administered one of PEG-AM (25 or 250 nmol/kg) or saline. On day 6, DSS was replaced with water. Clinical symptoms were evaluated on days 5, 8, 10, and 12. The inflammation scores were calculated. Colons were collected on day 12 under isoflurane anesthesia.

- Gene expression of receptor components (RAMP1, RAMP2, RAMP3, CLR) (RAMP1, RAMP2, RAMP3, CLR): no downregulation
Substance: 40 kDa PEGylated adrenomedullin [PEG-AM]
- Bloody stool score on day 8 (DSS-induced colitis [1]; p = 0.0008, Mann-Whitney U test): significantly lower
- Colon weight per unit length (DSS-induced colitis [1]; p = 0.0024, unpaired t-test): significantly lower
- Total inflammation score on day 8 (DSS-induced colitis [1]; p = 0.0062, Mann-Whitney U test): significantly lower
- Colon length (DSS-induced colitis [1]; p = 0.1429, unpaired t-test): not significantly different
- PEG-AM plasma concentration on day 8 [2]: undetectable
- Colon weight per unit length (DSS-induced colitis [3]; 250 nmol/kg i.v. on day 5 after DSS onset, day 12, p = 0.039, Dunnett's test): significantly lower
- Total inflammation scores over time (DSS-induced colitis [3]; 25 or 250 nmol/kg i.v. on day 5 after 2% DSS (MW 36,000-50,000) for five days, days 5-12): did not significantly alter
- Colon length (DSS-induced colitis [3]; i.v. on day 5 after DSS onset, day 12, p = 0.014, one-way ANOVA with Dunnett's test, dose group not given): significantly longer
